Laboratory results reported in ChEMBL document CHEMBL1158870, “Antitumor agents. 180. Chemical Studies and cytotoxic evaluation of cumingianosides and cumindysoside A, antileukemic triterpene glucosides with a 14,18-cycloapotirucallane skeleton” (1997).

Experiments:
Format in all cases: functional
HCT-15 = assay: Cytotoxicity against human HCT15 cells by SRB assay
SW-620 = assay: Cytotoxicity against human SW620 cells by SRB assay
[1] = Cytotoxicity against human Colon cancer cells by SRB assay; conditions: Cancer cell lines
NSCLC = assay: Cytotoxicity against human NSCLC cells by SRB assay
HCC 2998 = assay: Cytotoxicity against human HCC2998 cells by SRB assay
Leukemia cell = assay: Cytotoxicity against human Leukemia cells by SRB assay
[2] = Cytotoxicity against human renal cancer cells by SRB assay; conditions: Cancer cell lines
[3] = Cytotoxicity against human melanoma cells by SRB assay; conditions: Melanoma cell
[4] = Cytotoxicity against human ovarian cancer cells by SRB assay; conditions: Cancer cell lines
HCT-116 = assay: Cytotoxicity against human HCT116 cells by SRB assay
[5] = Cytotoxicity against human CNS cancer cells by SRB assay; conditions: Cancer cell lines
COLO 205 = assay: Cytotoxicity against human COLO205 cells by SRB assay
HT-29 = assay: Cytotoxicity against human HT29 cells by SRB assay
KM12 = assay: Cytotoxicity against human KM12 cells by SRB assay

SMILES | TGI (HCT-15) [µM] | TGI (SW-620) [µM] | TGI [1] [µM] | TGI (NSCLC) [µM] | TGI (HCC 2998) [µM] | TGI (Leukemia cell) [µM] | TGI [2] [µM] | TGI [3] [µM] | TGI [4] [µM] | TGI (HCT-116) [µM] | TGI [5] [µM] | TGI (COLO 205) [µM] | TGI (HT-29) [µM] | TGI (KM12) [µM]
C=C(C=O)[C@H](C)[C@@H]1CC[C@]23C[C@]12CC[C@@H]1[C@@]2(C)CC[C@@H](OC(C)=O)C(C)(C)[C@@H]2C[C@@H](O[C@@H]2O[C@H](COC(C)=O)[C@@H](O)[C@H](O)[C@H]2O)[C@]13C [CUMINDYSODIDE A] | 7.5 | 1.4 | 5 | 12.5 | 1.4 | 4 | 10.8 | 6.9 | 10.4 | 1.4 | 1.4 | 1.4 | 11.9 | 9.5
CC(=O)OC[C@H]1O[C@@H](O[C@@H]2C[C@H]3C(C)(C)[C@H](OC(C)=O)CC[C@]3(C)[C@H]3CC[C@]45C[C@]4(CC[C@H]5[C@@H](C)C[C@@H](O)[C@H](O)C(C)(C)O)[C@@]32C)[C@H](O)[C@@H](O)[C@@H]1O [CUMINGIANOSIDE A] | 13.9 | 14.4 | 13.9 | 13.1 | 12.9 | 18.5 | 13.5 | 13.7 | 13.6 | 13.8 | 13.3 | 14 | 14.3 | 14.2
COC(C)(C)[C@@H](O)[C@H](O)C[C@H](C)[C@@H]1CC[C@]23C[C@]12CC[C@@H]1[C@@]2(C)CC[C@@H](OC(C)=O)C(C)(C)[C@@H]2C[C@@H](O[C@@H]2O[C@H](COC(C)=O)[C@@H](O)[C@H](O)[C@H]2O)[C@]13C [CUMINGIANOSIDE C] | 6.3 | 13.7 | 7.9 | 12.4 | 4.9 | 11.3 | 13.2 | 12.6 | 12 | 8.7 | 11.6 | 11.3 | 2.5 | 7.6
C=C(C)[C@@H](O)[C@H](O)C[C@H](C)[C@@H]1CC[C@]23C[C@]12CC[C@@H]1[C@@]2(C)CC[C@@H](OC(C)=O)C(C)(C)[C@@H]2C[C@@H](O[C@@H]2O[C@H](COC(C)=O)[C@@H](O)[C@H](O)[C@H]2O)[C@]13C [CUMINGIANOSIDE D] | 10.4 | 12 | 11 | 11.7 | 12.4 | 8.2 | 12.7 | 12.2 | 12.7 | 9.27 | 10.9 | 12.6 | 8.77 | 11.3
CC(=O)OC[C@H]1O[C@@H](O[C@@H]2C[C@H]3C(C)(C)[C@H](OC(C)=O)CC[C@]3(C)[C@H]3CC[C@]45C[C@]4(CC[C@H]5[C@@H](C)C[C@@H](O)[C@@H]4OC4(C)C)[C@@]32C)[C@H](O)[C@@H](O)[C@@H]1O [CUMINGIANOSIDE E] | 6 | 10 | 4.2 | 14.5 | 2.7 | 1.8 | 10 | 15.4 | 5.9 | 3.5 | 7.9 | 1.8 | 1.7 | 3.8
